Oligonucleotides are written 5' to 3', each unit as a sugar letter and its base; * is a phosphorothioate linkage, no mark a phosphodiester; rarer units and linkages stand in square brackets, end groups in braces. Plain capitals give the bases only. d = 2'-deoxy (DNA); r = 2'-OH (RNA)
target: UBE2B; test: reporter assay of Huesken 2005; details: siRNA
Further: test concentration or dose not given here.

Point of comparison: “sense rUrGrGrArUrGrArArCrCrGrArArUrCrCrUrArAdTdT / antisense rUrUrArGrGrArUrUrCrGrGrUrUrCrArUrCrCrAdGdC”, normalised inhibition (eCFP-eYFP dual reporter) 74.3%. Against it:
- sense rUrUrCrArUrCrCrArArArUrGrUrGrUrArUrGrCdTdT / antisense rGrCrArUrArCrArCrArUrUrUrGrGrArUrGrArAdAdC — lower, 46%
- sense rArGrArArUrCrGrArUrGrGrArGrUrCrCrArArCdTdT / antisense rGrUrUrGrGrArCrUrCrCrArUrCrGrArUrUrCrUdGdA — lower, 64.8%
- sense rGrCrArCrCrArUrCrUrGrArArArArCrArArCrAdTdT / antisense rUrGrUrUrGrUrUrUrUrCrArGrArUrGrGrUrGrCdGdC — lower, 74.2%
- sense rArUrArGrCrCrArGrGrCrArGrCrArCrArGrCrUdTdT / antisense rArGrCrUrGrUrGrCrUrGrCrCrUrGrGrCrUrArUdTdG — lower, 71.2%
- sense rUrUrUrUrCrUrGrArArGrArArUrArUrCrCrArAdTdT / antisense rUrUrGrGrArUrArUrUrCrUrUrCrArGrArArArAdTdT — higher, 85.3%
- sense rArUrGrUrUrUrArGrArUrArUrCrCrUrUrCrArGdTdT / antisense rCrUrGrArArGrGrArUrArUrCrUrArArArCrArUdAdT — lower, 46.7%
- sense rCrCrArCrCrArArCrUrGrUrUrArGrGrUrUrUrUdTdT / antisense rArArArArCrCrUrArArCrArGrUrUrGrGrUrGrGdTdT — lower, 69.7%
- sense rGrUrGrGrArArUrGrCrArGrUrUrArUrArUrUrUdTdT / antisense rArArArUrArUrArArCrUrGrCrArUrUrCrCrArCdTdG — higher, 84.6%
- sense rUrCrUrGrArArArArCrArArCrArUrCrArUrGrCdTdT / antisense rGrCrArUrGrArUrGrUrUrGrUrUrUrUrCrArGrAdTdG — lower, 48.3%
- sense rCrArArArUrGrUrGrUrArUrGrCrUrGrArUrGrGdTdT / antisense rCrCrArUrCrArGrCrArUrArCrArCrArUrUrUrGdGdA — lower, 62.6%
- sense rCrGrArGrArArUrArUrGrArGrArArArArGrArGdTdT / antisense rCrUrCrUrUrUrUrCrUrCrArUrArUrUrCrUrCrGdTdT — lower, 73.5%
- sense rCrGrGrGrArUrUrUrCrArArGrCrGrGrUrUrArCdTdT / antisense rGrUrArArCrCrGrCrUrUrGrArArArUrCrCrCrGdCdA — higher, 85.1%
- sense rGrArArGrGrGrArCrArCrCrUrUrUrUrGrArArGdTdT / antisense rCrUrUrCrArArArArGrGrUrGrUrCrCrCrUrUrCdTdG — higher, 79.8%
- sense rGrCrUrUrUrArUrCrArGrGrArArArArCrArArAdTdT / antisense rUrUrUrGrUrUrUrUrCrCrUrGrArUrArArArGrCdTdG — higher, 80.4%
- sense rArCrArArGrArGrGrArCrCrCrArCrCrUrGrUrGdTdT / antisense rCrArCrArGrGrUrGrGrGrUrCrCrUrCrUrUrGrUdAdA — lower, 61.1%
- sense rArGrUrCrUrCrUrGrCrUrGrGrArUrGrArArCrCdTdT / antisense rGrGrUrUrCrArUrCrCrArGrCrArGrArGrArCrUdGdA — lower, 53.1%
- sense rArArUrGrUrUrUrCrArUrCrCrArArArUrGrUrGdTdT / antisense rCrArCrArUrUrUrGrGrArUrGrArArArCrArUrUdTdT — lower, 63.5%
- sense rGrArUrGrUrArUrCrUrUrCrUrArUrCrUrUrArAdTdT / antisense rUrUrArArGrArUrArGrArArGrArUrArCrArUrCdAdT — higher, 84.7%
- sense rArGrGrGrArCrArCrCrUrUrUrUrGrArArGrArUdTdT / antisense rArUrCrUrUrCrArArArArGrGrUrGrUrCrCrCrUdTdC — higher, 78.1%
- sense rCrArGrGrCrArGrCrArCrArGrCrUrUrUrArUrCdTdT / antisense rGrArUrArArArGrCrUrGrUrGrCrUrGrCrCrUrGdGdC — higher, 75.1%
- sense rCrArGrGrArArArArCrArArArCrGrArGrArArUdTdT / antisense rArUrUrCrUrCrGrUrUrUrGrUrUrUrUrCrCrUrGdAdT — higher, 84%
- sense rCrArGrUrGrGrArArUrGrCrArGrUrUrArUrArUdTdT / antisense rArUrArUrArArCrUrGrCrArUrUrCrCrArCrUrGdCdA — higher, 83.5%
- sense rUrArUrCrCrArArArArUrGrUrUrUrCrArUrCrCdTdT / antisense rGrGrArUrGrArArArCrArUrUrUrUrGrGrArUrAdAdA — lower, 48.2%
- sense rArArUrUrCrArGrUrCrUrCrUrGrCrUrGrGrArUdTdT / antisense rArUrCrCrArGrCrArGrArGrArCrUrGrArArUrUdGdA — lower, 60.8%
- sense rUrArUrCrUrUrArArCrArUrCrArArUrUrCrArGdTdT / antisense rCrUrGrArArUrUrGrArUrGrUrUrArArGrArUrAdGdA — lower, 50.5%
- sense rArGrCrCrArGrGrCrArGrCrArCrArGrCrUrUrUdTdT / antisense rArArArGrCrUrGrUrGrCrUrGrCrCrUrGrGrCrUdAdT — lower, 71.4%
- sense rArUrGrCrArGrUrUrArUrArUrUrUrGrGrArCrCdTdT / antisense rGrGrUrCrCrArArArUrArUrArArCrUrGrCrArUdTdC — lower, 53.2%
- sense rUrArUrGrUrUrUrArGrArUrArUrCrCrUrUrCrAdTdT / antisense rUrGrArArGrGrArUrArUrCrUrArArArCrArUrAdTdG — lower, 63.5%
- sense rArArCrArUrCrArUrGrCrArGrUrGrGrArArUrGdTdT / antisense rCrArUrUrCrCrArCrUrGrCrArUrGrArUrGrUrUdGdT — lower, 55%
- sense rUrUrUrCrArArGrCrGrGrUrUrArCrArArGrArGdTdT / antisense rCrUrCrUrUrGrUrArArCrCrGrCrUrUrGrArArAdTdC — lower, 45.5%
- sense rGrCrGrCrArCrCrArUrCrUrGrArArArArCrArAdTdT / antisense rUrUrGrUrUrUrUrCrArGrArUrGrGrUrGrCrGrCdCdA — lower, 72.8%
- sense rArUrUrUrUrCrUrGrArArGrArArUrArUrCrCrAdTdT / antisense rUrGrGrArUrArUrUrCrUrUrCrArGrArArArArUdTdC — lower, 63.7%
- sense rArGrUrUrArUrArUrUrUrGrGrArCrCrArGrArAdTdT / antisense rUrUrCrUrGrGrUrCrCrArArArUrArUrArArCrUdGdC — higher, 79%
- sense rUrUrUrCrUrGrArArGrArArUrArUrCrCrArArAdTdT / antisense rUrUrUrGrGrArUrArUrUrCrUrUrCrArGrArArAdAdT — higher, 82.5%
- sense rCrGrGrCrCrArUrUrGrUrUrGrArArCrArArArGdTdT / antisense rCrUrUrUrGrUrUrCrArArCrArArUrGrGrCrCrGdAdA — higher, 76.5%
- sense rArUrCrCrUrUrCrArGrArArUrCrGrArUrGrGrAdTdT / antisense rUrCrCrArUrCrGrArUrUrCrUrGrArArGrGrArUdAdT — higher, 77.2%

target: UBE2E3; test: reporter assay of Huesken 2005; details: siRNA

Point of comparison: “sense rGrCrCrArCrUrCrArGrUrArUrUrUrGrArCrCrAdTdT / antisense rUrGrGrUrCrArArArUrArCrUrGrArGrUrGrGrCdTdA”, normalised inhibition (eCFP-eYFP dual reporter) 90.9%. Against it:
- sense rUrCrArArCrArGrUrCrArGrGrGrArGrUrCrArUdTdT / antisense rArUrGrArCrUrCrCrCrUrGrArCrUrGrUrUrGrAdTdG — lower, 74.7%
- sense rArGrCrCrUrGrArArGrArArCrArArGrArGrGrAdTdT / antisense rUrCrCrUrCrUrUrGrUrUrCrUrUrCrArGrGrCrUdCdT — lower, 89%
- sense rCrCrArArCrArGrArGrCrArGrArArCrArCrGrAdTdT / antisense rUrCrGrUrGrUrUrCrUrGrCrUrCrUrGrUrUrGrGdTdC — lower, 88.8%
- sense rCrCrUrUrArArArGrArCrArArCrUrGrGrArGrUdTdT / antisense rArCrUrCrCrArGrUrUrGrUrCrUrUrUrArArGrGdAdT — lower, 58.9%
- sense rArUrUrUrArArGrCrCrArCrCrArArArGrGrUrUdTdT / antisense rArArCrCrUrUrUrGrGrUrGrGrCrUrUrArArArUdGdG — lower, 64.2%
- sense rArArCrArGrArGrCrArGrArArCrArCrGrArCrAdTdT / antisense rUrGrUrCrGrUrGrUrUrCrUrGrCrUrCrUrGrUrUdGdG — lower, 76.9%
- sense rArGrArUrCrArArCrUrArUrArCrUrUrGrGrUrCdTdT / antisense rGrArCrCrArArGrUrArUrArGrUrUrGrArUrCrUdCdC — lower, 52.8%
- sense rCrUrUrGrGrUrCrCrArCrCrGrGrGrUrUrCrUrGdTdT / antisense rCrArGrArArCrCrCrGrGrUrGrGrArCrCrArArGdTdA — lower, 68.4%
- sense rArUrCrArArCrArGrUrCrArGrGrGrArGrUrCrAdTdT / antisense rUrGrArCrUrCrCrCrUrGrArCrUrGrUrUrGrArUdGdT — lower, 70.5%
- sense rArUrArGrCrCrArCrUrCrArGrUrArUrUrUrGrAdTdT / antisense rUrCrArArArUrArCrUrGrArGrUrGrGrCrUrArUdGdC — lower, 88.7%
- sense rGrUrCrArUrCrUrGrUrCrUrGrGrArCrArUrCrCdTdT / antisense rGrGrArUrGrUrCrCrArGrArCrArGrArUrGrArCdTdC — lower, 43.8%
- sense rUrUrUrUrGrArCrArGrArCrUrGrCrArArCrCrCdTdT / antisense rGrGrGrUrUrGrCrArGrUrCrUrGrUrCrArArArAdGdG — lower, 50.3%
- sense rCrArCrCrArArArGrGrUrUrArCrUrUrUrCrCrGdTdT / antisense rCrGrGrArArArGrUrArArCrCrUrUrUrGrGrUrGdGdC — lower, 58.8%
- sense rArCrUrArUrUrUrCrArArArGrGrUrUrUrUrGrCdTdT / antisense rGrCrArArArArCrCrUrUrUrGrArArArUrArGrUdCdA — lower, 34.3%
